One assay deals with Coprinus comatus lectin. Briefly: Sugar-binding specificity: inhibition of lectin-induced hemagglutination by carbohydrates. In kind it is biochemical. The note with it: for Inhibition of lectin hemagglutinating activity by sugar: Coprinus comatus biomass lectin. The procedure:
Sugar-binding specificity of lectins. The investigation of inhibition of lectin-induced hemagglutination by various carbohydrates was performed in a manner analogous to the hemagglutination test. Sugar samples (0.3 M) were prepared in phosphate buffered saline. All of the dilutions were mixed with an equal volume (25 μL) of a solution of the lectin. The mixture was allowed to stand for 30 min at room temperature and then mixed with 50 μL of 2% rabbit erythrocyte suspension. Sugar-binding specificity was expressed as the minimum concentration of each sugar required for inhibition of hemagglutination of titer 4 of the lectin. N-Acetyl-D-galactosamine (GalNAc); N-Acetyl-D-glucosamine (GlcNAc), D(+)Galactose (Gal); D(+)Glucose, D(+)Lactose (Lac); D(+)Mannose, xylose, cellobiose, and dulcitol were tested for detection of sugar-binding specificity of lectins.

The next assay has as its system interferon (IFN). The experiment in a line: IFN level in blood plasma of mice after per os biomass. The note with it: dose 50 mg/animal. In kind it is in vivo.
A further assay concerns IκBα phosphorylation. Briefly: pIκBα level in H2O2-stimulated MCF7 cells, Western immunoblot. The format is cell-based. How it is done:
Cell Lysis, Preparation of Total Cell Lysates. In order to measure the intracellular levels of certain proteins as a response to the crude fungal extracttreatments, each time after cells were collected, a total cell lysis was performed. The exact procedure of the total cell lysis is described below.
Cells were collected and washed 3 times with cold phosphate buffered saline (PBS) through centrifugation for 5 min, at 3,000 rpm, and 4° C. The final cell amounts were collected in Eppendorf tubes and the left over PBS from the last washing was discarded so that only the cell pellet was left in each tube. For cell lysis, each time a freshly prepared lysis buffer was used with the following content: 500-1000 μL, depending on the number of samples, of cell lysis reagent, protease inhibitor cocktail, and both phosphatase inhibitor cocktails 1 and 2 at the final concentration of 1%, and 0.3 M of phenylmethylsulfonyl fluoride (PMSF). […]
As a control, no H2O2 treatment was used, according to which the kinetics of pIκBα were determined. […]
Densitometric Analysis. Densitometric quantitative analyses of the protein bands, detected by Western blot, have been carried out using the TotalLab software and are presented as folds of the volumes of protein bands. […]

The subject of assay [1] is Tobacco mosaic virus (TMV), strain U1. Briefly: Influence of actinomycin D on GXM-induced resistance to TMV. The note with it: FIG. 14. In kind it is in vivo, Nicotiana tabacum, variety Immune 580. The procedure: Abscissa: variants of the experiment: 1—GXM; 2—mixture of GXM and AMD (10 μg/mL); 3—AMD (10 μg/mL) introduced 2 days after GXM; 4—AMD (20 μg/mL) introduced 2 days after GXM; 5—AMD (10 μg/mL). Ordinate: the ratio (%) of the quantity of local lesions in the experiment (dark solid bars) and in control (textured light bars).
When studying the GXM-induced mechanism of plant resistance, we used actinomycin D (AMD) inhibiting the DNA-dependent synthesis of mRNA by blocking RNA-polymerases. Solutions of AMD at the concentrations of 10 and 20 μg/mL and rhamnolipide (RL)−1 mg/mL, which were subepidermally introduced simultaneously or via definite periods of time after the GXM.

Assay [2] shares this test system. The format is in vivo. The note with it: Datura stramonium. The source says:
(§1) Virus: Tobacco mosaic virus (TMV), strain U1;
(§2) Plants: Tobacco (Nicotiana tabacum L.) variety Immune 580 and Datura stramonium L., cultivated in a hothouse under conditions of natural lighting, humidity, and temperature. Plants at a stage of 4-6 leaves were used in the experiment.
Polysaccharides, extracted from culture liquid of Tremella mesenterica were employed in this study using the method of Kovalenko with some modifications. To isolate acid glucuronoxylomannan (GXM) from neutral polysaccharides, we applied its sedimentation from a water solution with acetone (1:1) in the presence of 0.05 M CaCl2. Gas chromatography was carried out on Sephadex G-50 (2.5×80 cm) in pyridinium-acetate buffer, pH 4.5 (4 mL pyridine and 10 mL AcOH in 1 L water) and the eluate was monitored by refractive index detector.
In in vitro experiments the water solutions of the total preparation, neutral polysaccharide preparations, and pure GXM at concentrations of 10, 100, 500, and 1000 μg/mL were added to a suspension of TMV (10 μg/mL). After incubation over the 30 min the left halves of datura's leaves were inoculated with this mixture. The right halves of leaves were inoculated with TMV at the same concentration without polysaccharides. The degree of inhibition of viral infection, or VIR, was counted (in percentage) according to the number of local lesions on the experimental and control halves of the leaves by the following formula: I=((K−D)/K) 100%, where I—is a degree of virus inhibition or level of AVR, %; K—is the number (size) of local lesions in the control; D—is the number (size) of local lesions in the experiment.

Assay [3] shares this test system. Briefly: Induction of resistance against TMV infection in tobacco. In kind it is in vivo, Nicotiana tabacum, variety Immune 580. To be noted: for Level of induced resistance, % / Number of local lesions per leaf, Experiment: Nicotiana tabacum Immune 580; for Level of resistance: GXM 1000 μg/mL, FIG. 11.
Text: Abscissa: interval between introduction of GXM and inoculation of TMV (days). Ordinate: the ratio (%) of the number of local lesions in the experiment (dark solid bars) and in control (textured light bars).
Abscissa: interval between introduction of GXM and inoculation of TMV (days). Ordinate: size of local lesions (mm) in the experiment (dark solid bars) and in control (textured light bars).
as §1, §2
(§3) Investigations of induced properties of GXM were carried out on the tobacco and datura plants. […] The two halves of leaves were inoculated by TMV (1-5 μg/mL). The degree of AVR was taken into account by the formula mentioned above.

For assay [4] the test system is unchanged. The experiment in a line: Induction of resistance against TMV infection in Datura. In kind it is in vivo. The note with it: Datura stramonium. How it is done:
as §1, §2, §3

Where two headings read alike, the source gives them in different places. Marks after values point to notes of the source that are not given here. *1 amine or outer side, *2 acyl side, *3 side chain or, on linkers, in order; H or OH if unused. Where a SMILES comes first, the peptide text is derived from it. Bridges are numbered along the chain shown (N, C = ends). Roman numbers before positions name the chains, in order. [ ]: non-standard residue; d: D form. Actinocin(9to1) = Cc1c2oc3c(C)ccc(C(=O)[*:1])c3nc-2c(C(=O)[*:2])c(N)c1=O; NMeV = CN[C@H](C(=O)O)C(C)C; Sar = CNCC(=O)O Where only a bound is given, the exact number is not on record here.

Here are results for eight compounds from US20120124703A1, “NOVEL COPRINUS COMATUS AND TREMELLA MESENTERICA MUSHROOM STRAINS, PRODUCTS AND EXTRACTS THEREOF AND COMPOSITIONS COMPRISING THEM” (PALMED TEVA LTD, priority 2009, published 2012).

As for `OC[C@@H](O)[C@H](O)[C@H](O)[C@@H](O)CO` [dulcitol], the “Inhibition of lectin hemagglutinating activity by sugar” value (“Inhibition … by sugar” below) with Coprinus comatus lectin is recorded as “did not inhibit”.
Take Poly I:C: the IFN titre with interferon (IFN) (6 hours) was 320 units/ml; in the assay on interferon (IFN) (24 hours), 40 units/ml; in the assay on interferon (IFN) (48 hours) it was less than 20 units/ml.
For `COc1cc(/C=C/C(=O)CC(=O)/C=C/c2ccc(O)c(OC)c2)ccc1O` [curcumin], the pIκBα level result with IκBα phosphorylation (10 μM, 100 μM H2O2, preliminary data) is listed as “significantly inhibited”. For the same compound, the “Effect on IκBα phosphorylation” value in the assay on IκBα phosphorylation (MCF7, 10 min 100 μM H2O2, FIG. 2) is given as “high phospho-IkBα inhibitory effect”.
For the compound `O=C[C@H](O)[C@@H](O)[C@H](O[C@@H]1O[C@H](CO)[C@@H](O)[C@H](O)[C@H]1O)[C@H](O)CO` [cellobiose], the “Inhibition … by sugar” value with Coprinus comatus lectin is reported as “did not inhibit”.
Take `OC[C@H]1O[C@@H](O[C@H]2[C@H](O)[C@@H](O)C(O)O[C@@H]2CO)[C@H](O)[C@@H](O)[C@H]1O` (stereo partly drawn) [Lactose, D(+)Lactose]: in the assay with Coprinus comatus lectin (lactose, minimal concentration inhibiting hemagglutination), the MIC of saccharides worked out at 780 µM.
In the case of `Cc1c2oc3c(C)ccc(C(=O)N[C@@H]4C(=O)N[C@H](C(C)C)C(=O)N5CCC[C@H]5C(=O)N(C)CC(=O)N(C)[C@@H](C(C)C)C(=O)O[C@@H]4C)c3nc-2c(C(=O)N[C@@H]2C(=O)N[C@H](C(C)C)C(=O)N3CCC[C@H]3C(=O)N(C)CC(=O)N(C)[C@@H](C(C)C)C(=O)O[C@@H]2C)c(N)c1=O` [AMD, actinomycin D] (I: T[dV]P[Sar][NMeV] / II: T[dV]P[Sar][NMeV]; ester I:1-I:C, II:1-II:C; linker I:N-II:N via Actinocin(9to1)), the “Inhibition of development of GXM-induced AVR” value in assay [1] (AMD 10 μg/mL) is reported as “completely”; in assay [1] (AMD 20 μg/mL), “partly”.
As for `O=C[C@H](O)[C@@H](O)[C@H](O)CO` [xylose], in the assay on Coprinus comatus lectin, the “Inhibition … by sugar” value is “did not inhibit”.
As for glucuronoxylomannan [GXM], the “Number of local lesions per leaf, Experiment” value in assay [2] (10 μg/mL) stood at 26.5; in assay [2] (100 μg/mL) it was 4.5; in assay [2] (1000 μg/mL), 1.3; in assay [3] (100 μg/mL), 98.1; in assay [3] (500 μg/mL) it was 102.7; in assay [3] (1000 μg/mL), 128.5. Also, the “Number of local lesions per leaf, Experiment” value was found to be 63.4 in assay [3] (2000 μg/mL); 71.2 in assay [4] (100 μg/mL); 90.0 in assay [4] (500 μg/mL); 119.9 in assay [4] (1000 μg/mL); 119.6 in assay [4] (2000 μg/mL). Also, the “Inhibition, %” value in assay [2] (100 μg/mL) is on record as 16* %. Besides, the “Level of induced resistance, %” value in assay [3] (100 μg/mL) was 20%; in assay [3] (500 μg/mL), 20%; in assay [3] (1000 μg/mL) it was 17* %; in assay [3] (2000 μg/mL), 52** %; in assay [4] (100 μg/mL), 110%; in assay [4] (500 μg/mL), 90%. Further, the “Level of induced resistance, %” value in assay [4] (1000 μg/mL) is 14* %; in assay [4] (2000 μg/mL) it was 33** %. Also, in assay [3] (1000 μg/mL, tobacco), the “Size of local lesions, experiment vs control” value is reported as “reliable differences were not observed”. The “Growth (size) of TMV local lesions” value in assay [3] (2500 μg/mL, tobacco, FIG. 13) is on record as “intensifies the growth of viral lesions”. Besides, the “Development of AVR relative to TMV” value in assay [3] (1000 and 2500 μg/mL, first day after the inducer, tobacco) was “induces the development of AVR”. Also, the Level of resistance in assay [3] (5th day after the inducer, tobacco) stood at 30%; in assay [3] (7th day after the inducer, tobacco) it was 20%.
